# Active and inactive are the calls of the source.
# Assays:
# Large T antigen = Large T antigen (Simian virus 40, UniProt P03070); type: functional, Betapolyomavirus macacae;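 note: Confirmatory-stage PubChem screen for compounds that inhibit SV40 T antigen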
# BJ [1] = assay: cytotoxicity toward BJ-TERT fibroblasts, dose response, cell-based, RAS-independent, luminescence (AID 1933); type: functional; settings: Homo sapiens
# BJ [2] = assay: cells; type: functional, cell-based; settings: Homo sapiens
# BJ [3] = assay: cytotoxicity toward BJ-TERT-LT-ST fibroblasts, dose response, cell-based, RAS-independent, luminescence (AID 1935); type: functional; settings: Homo sapiens;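 note: BJ fibroblasts immortalized with TERT plus LT and ST oncogenes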
# [4] = cytotoxicity toward DRD oncogenic fibroblasts, dose response, cell-based, non-viral oncogenic, luminescence (AID 1934); type: functional; settings: Homo sapiens
# [5] = target: T1, Heat shock factor protein 1 (Mus musculus, UniProt P38532); assay: inhibition of MG132-induced HSE-luciferase signal, confirmation, cell-based, NIH3T3, luminescence, dose retest (AID 2382); type: functional;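 note: NIH3T3 fibroblasts with HSF1-driven luciferase reporter stressed by proteasome inhibitor MG132; luminescence from HSF1-driven luciferase expression after 8 hours of MG132 stress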
# T1 sequence (P38532 whole entry): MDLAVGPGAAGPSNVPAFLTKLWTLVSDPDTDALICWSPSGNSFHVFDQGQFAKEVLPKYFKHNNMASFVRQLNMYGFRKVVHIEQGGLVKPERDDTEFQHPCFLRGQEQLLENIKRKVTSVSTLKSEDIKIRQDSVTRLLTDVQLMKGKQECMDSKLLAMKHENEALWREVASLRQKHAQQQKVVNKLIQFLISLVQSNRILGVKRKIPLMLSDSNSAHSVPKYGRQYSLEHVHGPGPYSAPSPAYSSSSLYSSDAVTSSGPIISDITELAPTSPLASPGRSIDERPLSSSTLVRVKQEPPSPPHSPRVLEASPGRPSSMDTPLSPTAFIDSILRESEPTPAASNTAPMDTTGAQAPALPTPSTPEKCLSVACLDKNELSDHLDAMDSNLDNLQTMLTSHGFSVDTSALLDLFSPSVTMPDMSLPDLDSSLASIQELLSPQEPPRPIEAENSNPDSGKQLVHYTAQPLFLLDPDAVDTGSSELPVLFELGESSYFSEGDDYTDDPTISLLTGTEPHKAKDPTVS
# Nonstructural protein 1 = Nonstructural protein 1 (Influenza A virus, UniProt Q194T2); type: functional, Influenza A virus (A/California/07/2009(H1N1))
# [6] = THP-1 cell cytotoxicity, dose response, cytotoxicity control for non-replicating M. tuberculosis project (AID 489025); type: functional
# cells = type: functional
# Leucine aminopeptidase = target: T2, Leucine aminopeptidase (Plasmodium falciparum 3D7, UniProt Q8IL11); assay: P. falciparum M17LAP inhibitors, primary screen, biochemical, fluorogenic H-Leu-NHMec substrate, 1536-well (AID 1619); type: functional
# T2 sequence (Q8IL11 whole entry): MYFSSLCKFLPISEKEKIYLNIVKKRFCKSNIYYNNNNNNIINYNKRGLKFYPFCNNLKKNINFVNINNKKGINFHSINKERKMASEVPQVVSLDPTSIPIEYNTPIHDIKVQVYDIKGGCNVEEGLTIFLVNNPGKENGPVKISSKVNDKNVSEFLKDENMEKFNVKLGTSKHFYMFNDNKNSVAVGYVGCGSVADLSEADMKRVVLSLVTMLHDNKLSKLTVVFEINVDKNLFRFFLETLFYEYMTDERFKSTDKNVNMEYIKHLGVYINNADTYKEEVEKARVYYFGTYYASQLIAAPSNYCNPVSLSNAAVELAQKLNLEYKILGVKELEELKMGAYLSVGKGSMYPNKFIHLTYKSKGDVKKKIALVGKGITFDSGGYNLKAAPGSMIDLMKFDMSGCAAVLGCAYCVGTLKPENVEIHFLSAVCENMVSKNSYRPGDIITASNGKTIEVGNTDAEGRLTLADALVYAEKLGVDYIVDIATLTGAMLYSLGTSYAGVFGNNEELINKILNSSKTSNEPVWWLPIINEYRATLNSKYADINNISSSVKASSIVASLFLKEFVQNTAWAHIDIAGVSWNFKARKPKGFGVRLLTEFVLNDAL
# Protein RecA = target: T3, Protein RecA (Mycobacterium tuberculosis, UniProt P9WHJ3); assay: Fluorescence Cell-Free Homogeneous Dose Retest to Identify Inhibitors of RecA-Intein Splicing Activity. [Related pubchem assays (depositor defined):AID2097, AID2223, AID489010, AID492950]; type: functional
# T3 sequence (P9WHJ3 whole entry): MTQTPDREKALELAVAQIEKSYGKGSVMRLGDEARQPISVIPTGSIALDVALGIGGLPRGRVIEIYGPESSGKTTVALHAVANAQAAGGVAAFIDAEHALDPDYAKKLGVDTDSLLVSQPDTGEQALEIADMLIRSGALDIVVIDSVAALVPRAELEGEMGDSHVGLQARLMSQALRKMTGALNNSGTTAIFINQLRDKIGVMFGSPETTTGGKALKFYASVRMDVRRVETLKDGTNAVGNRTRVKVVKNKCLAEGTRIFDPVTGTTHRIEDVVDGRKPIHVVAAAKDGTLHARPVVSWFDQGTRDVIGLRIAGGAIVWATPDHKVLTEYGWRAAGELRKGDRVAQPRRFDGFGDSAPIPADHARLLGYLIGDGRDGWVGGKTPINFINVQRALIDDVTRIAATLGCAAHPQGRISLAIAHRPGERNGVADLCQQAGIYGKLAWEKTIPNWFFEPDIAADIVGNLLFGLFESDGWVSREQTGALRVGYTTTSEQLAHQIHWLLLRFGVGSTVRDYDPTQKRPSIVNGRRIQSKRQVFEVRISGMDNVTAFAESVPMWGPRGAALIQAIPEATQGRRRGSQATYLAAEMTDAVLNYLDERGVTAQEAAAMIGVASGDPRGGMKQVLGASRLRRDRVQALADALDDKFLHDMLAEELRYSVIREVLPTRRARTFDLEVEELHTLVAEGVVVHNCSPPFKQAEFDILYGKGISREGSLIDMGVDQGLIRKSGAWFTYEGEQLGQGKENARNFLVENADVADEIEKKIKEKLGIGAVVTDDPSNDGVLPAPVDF
# [7] = target: FAD-linked sulfhydryl oxidase ALR (Homo sapiens, UniProt P55789); assay: inhibitors of human ALR sulfhydryl oxidase, dose response, biochemical, H2O2 detection, luminescence, cherry-pick (AID 493248)
# [8] = HEp-2 cell cytotoxicity, dose response, cytotoxicity control for RSV inhibitor project, HTS (AID 2410); type: functional; settings: human respiratory syncytial virus
# Protein skinhead-1 = target: T4, Protein skinhead-1 (Caenorhabditis elegans, UniProt P34707); type: functional
# T4 sequence (P34707 whole entry): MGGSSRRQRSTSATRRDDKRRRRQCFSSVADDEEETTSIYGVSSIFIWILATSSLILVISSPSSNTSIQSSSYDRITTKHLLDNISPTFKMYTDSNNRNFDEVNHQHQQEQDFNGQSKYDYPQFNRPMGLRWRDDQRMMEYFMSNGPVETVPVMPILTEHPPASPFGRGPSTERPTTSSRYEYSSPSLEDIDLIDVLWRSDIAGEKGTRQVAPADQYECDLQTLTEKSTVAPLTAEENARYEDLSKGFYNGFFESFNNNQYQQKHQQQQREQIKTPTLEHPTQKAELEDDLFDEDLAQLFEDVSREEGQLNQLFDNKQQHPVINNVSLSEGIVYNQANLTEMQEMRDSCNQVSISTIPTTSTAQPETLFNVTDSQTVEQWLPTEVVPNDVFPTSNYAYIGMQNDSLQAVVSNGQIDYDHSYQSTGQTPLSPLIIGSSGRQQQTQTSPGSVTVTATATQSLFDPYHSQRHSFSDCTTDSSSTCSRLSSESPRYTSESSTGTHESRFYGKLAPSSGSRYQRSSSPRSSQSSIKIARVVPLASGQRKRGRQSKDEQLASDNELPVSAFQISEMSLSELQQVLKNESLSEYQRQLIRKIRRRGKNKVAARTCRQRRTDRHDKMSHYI
# [9] = target: T5, Rac GTPase-activating protein 1 (Homo sapiens, UniProt Q9H0H5); assay: MgcRacGAP GTPase-activating activity inhibitors, confirmation, biochemical, ADP Hunter fluorescence, primary and confirmatory (AID 624330); type: functional
# T5 sequence (Q9H0H5 whole entry): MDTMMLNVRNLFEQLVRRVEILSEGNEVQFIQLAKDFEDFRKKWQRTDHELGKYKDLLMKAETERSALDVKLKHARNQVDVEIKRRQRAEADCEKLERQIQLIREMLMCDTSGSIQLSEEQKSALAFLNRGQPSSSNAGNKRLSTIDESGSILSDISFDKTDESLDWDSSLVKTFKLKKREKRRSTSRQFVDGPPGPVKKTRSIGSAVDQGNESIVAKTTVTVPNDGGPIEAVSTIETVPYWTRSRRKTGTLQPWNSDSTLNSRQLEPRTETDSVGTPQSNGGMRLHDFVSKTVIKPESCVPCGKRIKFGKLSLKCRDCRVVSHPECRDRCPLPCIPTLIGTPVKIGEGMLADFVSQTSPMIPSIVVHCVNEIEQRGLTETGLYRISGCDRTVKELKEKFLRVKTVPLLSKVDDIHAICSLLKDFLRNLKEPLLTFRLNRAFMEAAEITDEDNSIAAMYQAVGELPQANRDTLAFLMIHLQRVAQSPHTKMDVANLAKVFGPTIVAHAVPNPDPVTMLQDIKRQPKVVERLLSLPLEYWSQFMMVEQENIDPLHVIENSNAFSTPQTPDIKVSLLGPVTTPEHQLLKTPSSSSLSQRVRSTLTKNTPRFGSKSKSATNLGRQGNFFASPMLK
# [10] = Shn3 3'UTR reporter inhibitors, dose response, cell-based, Clone20 osteoblasts, firefly luciferase, cherry-picked (AID 624132); type: functional;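 note: firefly luciferase luminescence from reporter carrying the Shn3 3'UTR in osteoblasts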
# [11] = control 3'UTR Renilla luciferase suppression, dose response, counter-screen for Shn3 inhibitor project, cell-based, Clone20-Shn3RL, cherry-picked (AID 624133); type: functional
# [12] = Luminescence Cell-Based Dose Retest to Confirm Inhibitors of Cancer Stem Cells. [Related pubchem assays (depositor defined):AID2717, AID2721]; type: functional; settings: Homo sapiens
# Chain of Large T antigen (P03070 whole entry): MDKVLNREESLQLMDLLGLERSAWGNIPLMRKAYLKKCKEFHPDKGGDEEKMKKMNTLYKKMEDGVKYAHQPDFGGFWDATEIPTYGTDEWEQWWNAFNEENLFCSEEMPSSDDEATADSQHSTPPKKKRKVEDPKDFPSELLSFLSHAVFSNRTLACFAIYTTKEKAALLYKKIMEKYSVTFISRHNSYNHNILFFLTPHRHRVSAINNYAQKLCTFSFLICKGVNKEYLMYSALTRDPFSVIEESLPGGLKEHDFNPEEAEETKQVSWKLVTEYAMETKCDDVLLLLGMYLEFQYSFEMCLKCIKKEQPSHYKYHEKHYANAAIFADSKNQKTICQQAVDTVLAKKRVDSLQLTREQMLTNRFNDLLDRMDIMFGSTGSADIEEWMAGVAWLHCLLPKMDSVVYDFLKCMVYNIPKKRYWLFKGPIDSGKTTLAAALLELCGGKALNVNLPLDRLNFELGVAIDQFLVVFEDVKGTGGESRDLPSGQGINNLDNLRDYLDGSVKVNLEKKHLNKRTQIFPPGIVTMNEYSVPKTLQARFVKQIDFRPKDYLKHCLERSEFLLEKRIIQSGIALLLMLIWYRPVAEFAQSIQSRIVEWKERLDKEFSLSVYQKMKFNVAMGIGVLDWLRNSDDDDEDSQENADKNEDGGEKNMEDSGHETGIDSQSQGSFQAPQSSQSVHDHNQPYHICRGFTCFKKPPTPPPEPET
# Chain of Nonstructural protein 1 (Q194T2 whole entry): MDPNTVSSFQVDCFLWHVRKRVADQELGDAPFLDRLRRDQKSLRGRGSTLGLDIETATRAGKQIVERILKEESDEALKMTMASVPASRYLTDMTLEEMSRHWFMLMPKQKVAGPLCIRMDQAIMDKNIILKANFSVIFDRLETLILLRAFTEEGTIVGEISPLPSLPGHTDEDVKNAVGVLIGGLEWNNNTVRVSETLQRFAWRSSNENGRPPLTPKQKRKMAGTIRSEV
# Chain of FAD-linked sulfhydryl oxidase ALR (P55789 whole entry): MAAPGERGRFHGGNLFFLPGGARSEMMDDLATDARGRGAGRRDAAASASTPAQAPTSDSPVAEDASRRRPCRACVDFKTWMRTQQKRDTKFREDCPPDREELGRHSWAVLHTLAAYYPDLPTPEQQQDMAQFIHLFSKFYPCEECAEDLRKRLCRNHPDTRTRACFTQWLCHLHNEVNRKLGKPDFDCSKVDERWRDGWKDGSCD
smiles,measurement,setting,value
O=C(Nc1ccc(Nc2ccccc2)cc1)N1CCOCC1,IC50,Large T antigen,7.43 µM (active)
CC1=CC(C)(C)N2C(=O)C(=O)c3cc(OC(=O)c4ccco4)cc1c32,EC50,BJ [1],> 150 µM (not active)
same,EC50,BJ [2],11.6 µM (active)
same,EC50,BJ [3],11.3 µM (inconclusive)
same,EC50,[4],11.2 µM (inconclusive)
Cc1ccc(OCC(=O)NCCNC(=O)c2ccco2)cc1C,EC50,[5],> 195 µM (not active)
Cc1cc(C)cc(-n2c(C)cc(C(=S)N3CCOCC3)c2C)c1,IC50,Nonstructural protein 1,95.6 µM (active)
O=C(c1ccccc1)c1ccc(-n2ccnc2)c([N+](=O)[O-])c1,EC50,BJ [1],> 150 µM (not active)
same,EC50,BJ [2],> 150 µM (not active)
same,EC50,BJ [3],> 150 µM (inconclusive)
same,EC50,[4],> 150 µM (not active)
COc1ccc(S(=O)(=O)N2CCCCCC2)cc1C(=O)OCC(=O)NC(C)(C)C,EC50,[5],> 195 µM (not active)
COc1ccc(N2C(=O)c3ccccc3NC2c2ccc(OC)c(Cn3cc([N+](=O)[O-])cn3)c2)cc1 (stereo unspecified),EC50,[5],> 195 µM (not active)
CCOc1ccc2c(c1)-c1c(ssc1=S)C(C)(C)N2C,IC50,Nonstructural protein 1,12.8 µM (active)
Cc1ccc(NC(=O)COc2ccc(-n3ccnc3)cc2)cc1Cl,CC50,[6],> 40 µM (active)
same,IC50,cells,25.5 µM (active)
Cc1oc(-c2cc3c(cc2Cl)OCO3)nc1CN1CCCC1c1ccc(F)cc1 (stereo unspecified),EC50,[5],> 195 µM (not active)
CC(C)[C@H](NC(=O)Nc1ccc(Oc2ccccc2)cc1)C(=O)O,IC50,Leucine aminopeptidase,15.7 µM (active)
same,EC50,Protein RecA,> 380 µM (inactive)
Cc1ccc(C(=O)NCC(=O)NCC(=O)OCC(=O)c2ccc(F)cc2)cc1,EC50,[5],> 195 µM (not active)
Cc1ccc2[nH]c3nc(NN)nnc3c2c1,IC50,Nonstructural protein 1,13.5 µM (active)
Cc1nc2cc(N=NN(C)C)ccc2[nH]1,IC50,Large T antigen,> 100 µM (active)
Cc1ncc([N+](=O)[O-])n1CC(=O)Nc1ccc(F)cc1,EC50,[5],12.3 µM (active)
CCN1C(=O)CC(N2CCC(Nc3ccc(OC)cc3)CC2)C1=O (stereo unspecified),IC50,Large T antigen,57.7 µM (active)
same,AC50,[7],2.09 µM (active)
CCOc1ccc(CC(=O)N2CCC3(CC2)NCCc2[nH]cnc23)cc1,EC50,[5],> 195 µM (not active)
O=C(Nc1nccs1)c1ccc(-c2ccc(Cl)cc2)o1,CC50,[8],> 50 µM (active)
same,CC50,[6],> 40 µM (active)
same,IC50,cells,25.6 µM (active)
same,IC50,Protein skinhead-1,> 100 µM (inactive)
COc1cc2c(cc1N=C(S)Nc1ccccc1C)oc1ccccc12,IC50,Large T antigen,56.4 µM (active)
same,IC50,[9],83.9 µM (active)
Cc1cc(-c2ccc(N=Nc3c(S(=O)(=O)O)cc4cc(S(=O)(=O)O)cc(N)c4c3O)c(C)c2)ccc1N=Nc1c(S(=O)(=O)O)cc2cc(S(=O)(=O)O)cc(N)c2c1O,IC50,Large T antigen,2.38 µM (active)
CN(C)S(=O)(=O)c1cccc(/N=c2\scc(-c3ccc4c(c3)NC(=O)CO4)n2CC2CCCO2)c1 (stereo unspecified),AC50,[10],14 µM (active)
same,AC50,[11],22.5 µM (active)
CCCS(=O)(=O)c1c(S(=O)(=O)CCC)c2c(C)cccn2c1C(=O)N/N=C/c1cc(O)cc(O)c1,EC50,BJ [1],23.5 µM (active)
same,EC50,BJ [2],20.2 µM (active)
same,EC50,BJ [3],18.1 µM (active)
same,EC50,[4],27 µM (active)
same,AC50,[12],2.52 µM (active)
Cc1ccc(S(=O)(=O)NC2=C(N3CCN(Cc4ccccc4)CC3)C(=O)c3ccccc3C2=O)cc1,IC50,Nonstructural protein 1,22.4 µM (active)

# From ChEMBL document CHEMBL1201862, “PubChem BioAssay data set” (2004)
